Assay results reported in patent publication US11691949B2, “Quinoline sulfonamide compounds and their use as antibacterial agents” (OTAGO INNOVATION LIMITED, priority 2017, dated 2023).
In brackets after ≈: the same amount, converted by molar mass. Structures can show the parent of a compound that is named as a salt. Where two headings read alike, the source gives them in different places.

Experiments:
Type in all cases: cell-based
S. uberis ATCC 19436 = test: MIC by broth microdilution, S. uberis; conditions: Streptococcus uberis
Outline: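 Streptococcus uberis ATCC 19436 was tested in Todd Hewitt Broth by broth microdilution in 96-well flat bottom plates, in biological triplicate. Overnight cells were diluted to OD600 of approximately 0.025, giving about 5×10^5 cfu/mL in the wells. Compounds were serially diluted two-fold to 200 μl, incubated 24 h at 37° C. and 200 rpm, and the MIC was taken from OD600.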

S. aureus ATCC 6538 = test: MIC by broth microdilution, S. aureus; conditions: Staphylococcus aureus
Outline: (§1)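 Media: TSB or CAMHB for S. aureus, LB or CAMHB for E. coli, with zinc sulphate to 50 μM final where required. Cells at ~5×10^5 cfu/mL met two-fold compound series; growth was scored by OD600 after 24 h shaking at 37° C.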

E. coli ATCC 10596 = test: MIC by broth microdilution, E. coli; conditions: Escherichia coli
Outline: as §1

[1] = ATCC19436, No Zinc, read-out: S. uberis ATCC 19436 MIC
[2] = ATCC19436, Zinc (50 μM), read-out: S. uberis ATCC 19436 MIC
[3] = ATCC6538, No Zinc, read-out: S. aureus ATCC 6538 MIC
[4] = ATCC6538, Zinc (50 μM), read-out: S. aureus ATCC 6538 MIC
[5] = ATCC 10536 / ATCC 10596, No Zinc, read-out: E. coli ATCC 10536 MIC
[6] = ATCC 10536 / ATCC 10596, Zinc (50 μM), read-out: E. coli ATCC 10536 MIC
[7] = ATCC19436, read-out: S. uberis ATCC 19436 MIC, No Zinc
[8] = ATCC19436, read-out: S. uberis ATCC 19436 MIC, Zinc (50 μM)
[9] = ATCC6538, read-out: S. aureus ATCC 6538 MIC, No Zinc
[10] = ATCC6538, read-out: S. aureus ATCC 6538 MIC, Zinc (50 μM)
[11] = ATCC 10536 / ATCC 10596, read-out: E. coli ATCC 10536 MIC, No Zinc
[12] = ATCC 10536 / ATCC 10596, read-out: E. coli ATCC 10536 MIC, Zinc (50 μM)

MIC (S. uberis ATCC 19436; [1]) | MIC (S. uberis ATCC 19436; [2]) | MIC (S. aureus ATCC 6538; [3]) | MIC (S. aureus ATCC 6538; [4]) | MIC (E. coli ATCC 10596; [5]) | MIC (E. coli ATCC 10596; [6]) | SMILES | MIC (S. uberis ATCC 19436; [7]) | MIC (S. uberis ATCC 19436; [8]) | MIC (S. aureus ATCC 6538; [9]) | MIC (S. aureus ATCC 6538; [10]) | MIC (E. coli ATCC 10596; [11]) | MIC (E. coli ATCC 10596; [12])
256 µg/mL (≈ 680 µM) | 0.5 µg/mL (≈ 1.33 µM) | > 256 µg/mL | 64 µg/mL (≈ 170 µM) | > 256 µg/mL | > 256 µg/mL | Cc1nc(C)c(S(=O)(=O)Nc2cccc3ccc(CN(C)C)nc23)s1 [ZDR203, N-(2-((Dimethylamino)methyl)quinolin-8-yl)-2,4-dimethylthiazole-5-sulfonamide] | – | – | – | – | – | –
256 µg/mL (≈ 765 µM) | 0.5 µg/mL (≈ 1.5 µM) | > 256 µg/mL | 256 µg/mL (≈ 765 µM) | > 256 µg/mL | > 256 µg/mL | CN(C)Cc1ccc2cccc(NS(=O)(=O)N3CCCC3)c2n1 [ZDR204, N-(2-((Dimethylamino)methyl)quinolin-8-yl)pyrrolidine-1-sulfonamide] | – | – | – | – | – | –
256 µg/mL (≈ 549 µM) | 0.125 µg/mL (≈ 0.268 µM) | 128 µg/mL (≈ 274 µM) | 64 µg/mL (≈ 137 µM) | > 256 µg/mL | > 256 µg/mL | CN(C)CC(=O)NCc1ccc2cccc(NS(=O)(=O)c3ccc(C(F)(F)F)cc3)c2n1 [ZDR205, 2-(Dimethylamino)-N-((8-((4-(trifluoromethyl)phenyl)sulfonamido)quinolin-2-yl)methyl)acetamide] | – | – | – | – | – | –
> 256 µg/mL | 1 µg/mL (≈ 2.18 µM) | > 256 µg/mL | > 256 µg/mL | > 256 µg/mL | > 256 µg/mL | CS(=O)(=O)NCc1ccc2cccc(NS(=O)(=O)c3ccc(C(F)(F)F)cc3)c2n1 [ZDR209, N-(2-(Methylsulfonamidomethyl)quinolin-8-yl)-4-(trifluoromethyl)benzenesulfonamide] | – | – | – | – | – | –
> 256 µg/mL | 0.25 µg/mL (≈ 0.479 µM) | > 256 µg/mL | > 256 µg/mL | > 256 µg/mL | > 256 µg/mL | O=S(=O)(NCc1ccc2cccc(NS(=O)(=O)c3ccc(C(F)(F)F)cc3)c2n1)c1ccccc1 [ZDR210, N-(2-(Phenylsulfonamidomethyl)quinolin-8-yl)-4-(trifluoromethyl)benzenesulfonamide] | – | – | – | – | – | –
> 256 µg/mL | 0.0625 µg/mL (≈ 0.161 µM) | > 256 µg/mL | > 256 µg/mL | > 256 µg/mL | > 256 µg/mL | CSc1ccc(S(=O)(=O)Nc2cccc3ccc(CN(C)C)nc23)cc1 [ZDR257, N-(2-((Dimethylamino)methyl)quinolin-8-yl)-4-(methylthio)benzenesulfonamide] | – | – | – | – | – | –
256 µg/mL (≈ 687 µM) | 0.125 µg/mL (≈ 0.336 µM) | > 256 µg/mL | > 256 µg/mL | > 256 µg/mL | > 256 µg/mL | COc1ccc(S(=O)(=O)Nc2cccc3ccc(CN(C)C)nc23)cn1 [ZDR258, N-(2-((Dimethylamino)methyl)quinolin-8-yl)-6-methoxypyridine-3-sulfonamide] | – | – | – | – | – | –
> 256 µg/mL | 0.25 µg/mL (≈ 0.819 µM) | > 256 µg/mL | 256 µg/mL (≈ 838 µM) | > 256 µg/mL | > 256 µg/mL | C=CCS(=O)(=O)Nc1cccc2ccc(CN(C)C)nc12 [ZDR259, N-(2-((Dimethylamino)methyl)quinolin-8-yl)prop-2-ene-1-sulfonamide] | – | – | – | – | – | –
> 256 µg/mL | 0.0625 µg/mL (≈ 0.149 µM) | 64 µg/mL (≈ 152 µM) | 128 µg/mL (≈ 305 µM) | > 256 µg/mL | > 256 µg/mL | CN(C)Cc1ccc2cccc(NS(=O)(=O)c3ccc(Br)cc3)c2n1 [ZDR305, 4-Bromo-N-(2-((dimethylamino)methyl)quinolin-8-yl)benzenesulfonamide] | – | – | – | – | – | –

Second part, the compound before the results:

SMILES | MIC (S. uberis ATCC 19436; [1]) | MIC (S. uberis ATCC 19436; [2]) | MIC (S. aureus ATCC 6538; [3]) | MIC (S. aureus ATCC 6538; [4]) | MIC (E. coli ATCC 10596; [5]) | MIC (E. coli ATCC 10596; [6]) | MIC (S. uberis ATCC 19436; [7]) | MIC (S. uberis ATCC 19436; [8]) | MIC (S. aureus ATCC 6538; [9]) | MIC (S. aureus ATCC 6538; [10]) | MIC (E. coli ATCC 10596; [11]) | MIC (E. coli ATCC 10596; [12])
CN(C)Cc1ccc2cccc(NS(=O)(=O)N3CCCCC3)c2n1 [ZDR193, N-(2-((Dimethylamino)methyl)quinolin-8-yl)piperidine-1-sulfonamide] | 128 µg/mL (≈ 367 µM) | 0.25 µg/mL (≈ 0.717 µM) | > 256 µg/mL | > 256 µg/mL | > 256 µg/mL | > 256 µg/mL | – | – | – | – | – | –
CN(C)Cc1ccc2cccc(NS(=O)(=O)c3cnn(C)c3)c2n1 [ZDR194, N-(2-((Dimethylamino)methyl)quinolin-8-yl)-1-methyl-1H-pyrazole-4-sulfonamide] | > 256 µg/mL | 4 µg/mL (≈ 11.6 µM) | > 256 µg/mL | > 256 µg/mL | > 256 µg/mL | > 256 µg/mL | – | – | – | – | – | –
CN(C)Cc1ccc2cccc(NS(=O)(=O)c3cn(C)cn3)c2n1 [ZDR195, N-(2-((Dimethylamino)methyl)quinolin-8-yl)-1-methyl-1H-imidazole-4-sulfonamide] | > 256 µg/mL | 32 µg/mL (≈ 92.6 µM) | > 256 µg/mL | > 256 µg/mL | > 256 µg/mL | > 256 µg/mL | – | – | – | – | – | –
CN(C)Cc1ccc2cccc(NS(=O)(=O)c3cccc4nsnc34)c2n1 [ZDR196, N-(2-((Dimethylamino)methyl)quinolin-8-yl)benzo[c][1,2,5]thiadiazole-4-sulfonamide] | 256 µg/mL (≈ 641 µM) | 0.0625 µg/mL (≈ 0.156 µM) | > 256 µg/mL | 32 µg/mL (≈ 80.1 µM) | > 256 µg/mL | > 256 µg/mL | – | – | – | – | – | –
CN(C)Cc1ccc2cccc(NS(=O)(=O)c3ccccc3F)c2n1 [ZDR201, N-(2-((Dimethylamino)methyl)quinolin-8-yl)-2-fluorobenzenesulfonamide] | 128 µg/mL (≈ 356 µM) | 0.0625 µg/mL (≈ 0.174 µM) | > 256 µg/mL | 32 µg/mL (≈ 89 µM) | > 256 µg/mL | > 256 µg/mL | – | – | – | – | – | –
CN(C)Cc1ccc2cccc(NS(=O)(=O)c3ccccc3Br)c2n1 [ZDR202, 2-Bromo-N-(2-((dimethylamino)methyl)quinolin-8-yl)benzenesulfonamide] | 256 µg/mL (≈ 609 µM) | 0.125 µg/mL (≈ 0.297 µM) | 256 µg/mL (≈ 609 µM) | > 256 µg/mL | > 256 µg/mL | > 256 µg/mL | – | – | – | – | – | –
CN(C)CCCC(=O)NCc1ccc2cccc(NS(=O)(=O)c3ccc(C(F)(F)F)cc3)c2n1 [ZDR211, 4-(Dimethylamino)-N-((8-((4-(trifluoromethyl)phenyl)sulfonamido)quinolin-2-yl)methyl)butanamide trifluoroacetate] | – | – | – | – | – | – | 64 µg/mL | 16 µg/mL | 128 µg/mL | 64 µg/mL | 128 µg/mL | 128 µg/mL
O=C(CNCc1ccc2cccc(NS(=O)(=O)c3ccc(C(F)(F)F)cc3)c2n1)NCCCN1CCCCC1 [ZDR262, N-(3-(Piperidin-1-yl)propyl)-2-(((8-((4-(trifluoromethyl)phenyl)sulfonamido)quinolin-2-yl)methyl)amino)acetamide di-trifluoroacetate] | – | – | – | – | – | – | 8 µg/mL (≈ 14.2 µM) | 16 µg/mL (≈ 28.4 µM) | 64 µg/mL (≈ 114 µM) | 128 µg/mL (≈ 227 µM) | 32 µg/mL (≈ 56.8 µM) | 64 µg/mL (≈ 114 µM)
CN(C)Cc1ccc2cccc(NS(=O)(=O)C3CCNCC3)c2n1 [ZDR263, N-(2-((Dimethylamino)methyl)quinolin-8-yl)piperidine-4-sulfonamide di-trifluoroacetate] | – | – | – | – | – | – | > 256 µg/mL | 256 µg/mL (≈ 735 µM) | > 256 µg/mL | > 256 µg/mL | > 256 µg/mL | > 256 µg/mL
O=C(CNCc1ccc2cccc(NS(=O)(=O)c3ccc(C(F)(F)F)cc3)c2n1)NC(CO)(CO)CO [ZDR265, N-(1,3-Dihydroxy-2-(hydroxymethyl)propan-2-yl)-2-(((8-((4-(trifluoromethyl)phenyl)sulfonamido)quinolin-2-yl)methyl)amino)acetamide trifluoroacetate] | – | – | – | – | – | – | 128 µg/mL | 256 µg/mL | 64 µg/mL | 64 µg/mL | 256 µg/mL | 256 µg/mL
NC(=O)CNCc1ccc2cccc(NS(=O)(=O)c3ccc(C(F)(F)F)cc3)c2n1 [ZDR266, 2-(((8-((4-(Trifluoromethyl)phenyl)sulfonamido)quinolin-2-yl)methyl)amino)acetamide trifluoroacetate] | – | – | – | – | – | – | 16 µg/mL | 16 µg/mL | 64 µg/mL | 32 µg/mL | 128 µg/mL | 256 µg/mL
O=C(CNCc1ccc2cccc(NS(=O)(=O)c3ccc(C(F)(F)F)cc3)c2n1)NO [ZDR267, N-hydroxy-2-(((8-((4-(trifluoromethyl)phenyl)sulfonamido)quinolin-2-yl)methyl)amino)acetamide trifluoroacetate] | – | – | – | – | – | – | 256 µg/mL | 256 µg/mL | 256 µg/mL | 128 µg/mL | > 256 µg/mL | > 256 µg/mL
CN(C)CCNC(=O)CNCc1ccc2cccc(NS(=O)(=O)c3ccc(C(F)(F)F)cc3)c2n1 [ZDR268, N-(2-(Dimethylamino)ethyl)-2-(((8-((4-(trifluoromethyl)phenyl)sulfonamido)quinolin-2-yl)methyl)amino)acetamide di-trifluoroacetate] | – | – | – | – | – | – | 32 µg/mL (≈ 62.8 µM) | 16 µg/mL (≈ 31.4 µM) | 64 µg/mL (≈ 126 µM) | 128 µg/mL (≈ 251 µM) | 64 µg/mL (≈ 126 µM) | 64 µg/mL (≈ 126 µM)
CNC(=O)CNCc1ccc2cccc(NS(=O)(=O)c3ccc(C(F)(F)F)cc3)c2n1 [ZDR270, N-Methyl-2-(((8-((4-(trifluoromethyl)phenyl)sulfonamido)quinolin-2-yl)methyl)amino)acetamide trifluoroacetate] | – | – | – | – | – | – | 16 µg/mL | 4 µg/mL | 32 µg/mL | 32 µg/mL | 128 µg/mL | 256 µg/mL
